Tested on: SW 1271 complex spheroids, viability
Assay: Anticancer human tumor SW 1271 cell line growth inhibition [LSD1];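 further: spheroids exposed to agents for 7 days before luminescence read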;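 on viability, T/C: 100% = DMSO vehicle control viability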
Conditions: for IC50: curve of first compound; for viability, T/C: stronger effect = lower value
Source text: Multicellular complex tumor spheroid response to LSD1 Inhibitor Iadademstat in combination with a variety of drugs and investigational agents in selected tumor cell lines
The current study was undertaken to assess response to LSD1 inhibitors in combination with standard-of-care drugs and investigational agents in solid tumor complex spheroid models as well as in the K-562 leukemia. Complex spheroids include a stromal component modeled by human endothelial cells (HUVEC) and fibroblasts modeled by human mesenchymal stem cells (MSCs). The concentration ranges selected for each drug and investigational agent were based upon clinically achievable concentrations if the clinical Cmax of the agent was known.
Compounds. The drugs and investigational agents used in this study are listed on Table 1. All of the agents used, including staurosporine (NSC755774) and gemcitabine (NSC613327), were obtained from the Developmental Therapeutics Program, NCI. FDA-approved anticancer drugs are available from the NCI at http://dtp.nci.nih.gov/branches/dscb/oncology_drugset_explanation.html. Drugs and investigational agents were >95% pure by proton nuclear magnetic resonance (NMR) and liquid chromatography/mass spectrometry (LC/MS). Stock solutions were prepared at 400x in DMSO, stored at -70 degrees C, and diluted in fresh medium prior to their use. The final concentration of DMSO in cell culture wells never exceeded 0.25% (v/v). The FDA-approved anticancer drug set is available from the Developmental Therapeutics Program at https://dtp.cancer.gov/organization/dscb/obtaining/available_plates.htm. All drugs and investigational agents were tested over a range starting from a high concentration at or near the clinical Cmax and decreasing in half-log increments. If the clinical Cmax for an agent had not been determined, the highest concentration tested was 10 microM.
Cell Lines. The patient-derived cancer cell (PDC) lines: 292921-168-R-J2-PDC, K24384-001-R-PDC, and 521955-158-R2-J5-PDC pancreatic carcinomas, 556581-035-R-J1 ovarian carcinoma, 324938-238-R-J1-PDC, 855422-203-R-J1-PDC and 883617-216-R-J1-PDC urothelial bladder carcinomas, 743489-274-T-PDC renal cell carcinoma, 138582-R-J1 Merkel cell tumor, K60290-347-R-J1 and K57222-313-R-J1-PDC glioblastomas, 653999-131-R-J2-PDC, LG0703-F948-PDC, and 349418-098-R-PDC non-small cell lung carcinomas, 885512-296-R-J2-PDC, 171881-019-R-J1-PDC breast carcinomas and 186277-243-T-J2-PDC and 233499-124-R-J2-PDC colon carcinomas were obtained from the NCI Patient-Derived Models Repository (PDMR, https://pdmr.cancer.gov). The established cell lines NCI/ADR-RES (RRID:CVCL_14520 and OVCAR-5 (RRID:CVCL_1628) ovarian carcinomas, 786-O (RRID:CVCL_1051) and A498 (RRID:CVCL_A498) renal cell carcinoma, NCI-H211 (ATCC, cat. CRL-5824; RRID:CVCL_1529), NCI-H196 (ATCC, cat. CRL-5823, RRID:CVCL_1509), SW 1271 (ATCC, cat. CRL-2177, RRID:CVCL_1716) and NCI-H1876 (ATCC, cat. CRL-5902, RRID:CVCL_1503) small cell lung carcinomas, MDA-MB-231 (RRID:CVCL_0062) and MDA-MB-468 (RRID:CVCL_0419)breast carcinomas (10-12). Pooled donor human umbilical vein endothelial cells (HUVEC, Lonza, cat. CC-2519) and human mesenchymal stem cells (hMSC, Lonza, cat. PT-2501) were purchased from Lonza (Walkersville, MD).
Cell Culture. All cells were maintained in an incubator at 37 degrees C and 5% CO2 with 95% humidity. The PDC lines were cultured according to standard operating procedures established by the NCI PDMR (https://pdmr.cancer.gov). Briefly all PDCs were thawed and cultured in Matrigel-coated flasks prepared with a working solution of 1X Ham's F-12 nutrient mix, without supplementation (Invitrogen, Waltham, MA, cat. 11765054), 100 U/mL penicillin-streptomycin (Invitrogen, cat. 15140122), and 2.5% Matrigel (Corning Inc., Corning, NY, cat. 354248) for the first three passages. […]

[1] = second compound 0.1 µM, first compound 0.000316 µM
[2] = second compound 0.1 µM, first compound 0.001 µM
[3] = second compound 0.1 µM, first compound 0.00316 µM
[4] = second compound 0.1 µM, first compound 0.01 µM
[5] = second compound 0.1 µM, first compound 0.0316 µM
[6] = second compound 0.1 µM, first compound 0.1 µM
[7] = second compound 0.316 µM, first compound 0.000316 µM
[8] = second compound 0.316 µM, first compound 0.001 µM
[9] = second compound 0.316 µM, first compound 0.00316 µM
[10] = second compound 0.316 µM, first compound 0.01 µM
[11] = second compound 0.316 µM, first compound 0.0316 µM
[12] = second compound 0.316 µM, first compound 0.1 µM
[13] = second compound 1 µM, first compound 0.000316 µM
[14] = second compound 1 µM, first compound 0.001 µM
[15] = second compound 1 µM, first compound 0.00316 µM
[16] = second compound 1 µM, first compound 0.01 µM
[17] = second compound 1 µM, first compound 0.0316 µM
[18] = second compound 1 µM, first compound 0.1 µM
[19] = second compound 3.16 µM, first compound 0.000316 µM
[20] = second compound 3.16 µM, first compound 0.001 µM
[21] = second compound 3.16 µM, first compound 0.00316 µM
[22] = second compound 3.16 µM, first compound 0.01 µM
[23] = second compound 3.16 µM, first compound 0.0316 µM
[24] = second compound 3.16 µM, first compound 0.1 µM
[25] = second compound 10 µM, first compound 0.000316 µM
[26] = second compound 10 µM, first compound 0.001 µM
[27] = second compound 10 µM, first compound 0.00316 µM
[28] = second compound 10 µM, first compound 0.01 µM
[29] = second compound 10 µM, first compound 0.0316 µM
[30] = second compound 10 µM, first compound 0.1 µM

Structure (SMILES) | IC50 (second compound 0.1 µM) | IC50 (second compound 0.316 µM) | IC50 (second compound 1 µM) | IC50 (second compound 3.16 µM) | IC50 (second compound 10 µM) | viability, T/C [1] | viability, T/C [2] | viability, T/C [3] | viability, T/C [4] | viability, T/C [5] | viability, T/C [6] | viability, T/C [7] | viability, T/C [8] | viability, T/C [9] | viability, T/C [10] | viability, T/C [11] | viability, T/C [12] | viability, T/C [13] | viability, T/C [14] | viability, T/C [15] | further results
CC(C)CC(NC(=O)C(Cc1ccccc1)NC(=O)c1cnccn1)B(O)O (stereo not given) + NC1CC1c1ccc(-c2cccc(O)c2)cc1 | < 0.316 nM | < 0.316 nM | < 0.316 nM | < 0.316 nM | < 0.316 nM | 2.9% | 0.1% | 0.1% | 0.28% | 0.2% | 0.25% | 3.44% | 0.11% | 0.09% | 1.18% | 0.59% | 0.2% | 2.62% | 0.2% | 0.37% | viability, T/C [16]: 4.1%; viability, T/C [17]: 0.05%; viability, T/C [18]: 0.13%; viability, T/C [19]: 2.05%; viability, T/C [20]: 0.64%; viability, T/C [21]: 0.12%; viability, T/C [22]: 4.7%; viability, T/C [23]: 0.14%; viability, T/C [24]: 0.19%; viability, T/C [25]: 6.62%; viability, T/C [26]: 0.5%; viability, T/C [27]: 0.15%; viability, T/C [28]: 0.72%; viability, T/C [29]: 0.12%; viability, T/C [30]: 0.19%
CC(C)CC(NC(=O)CNC(=O)c1cc(Cl)ccc1Cl)B1OC(=O)CC(CC(=O)O)(C(=O)O)O1 (stereo not given) + NC1CC1c1ccc(-c2cccc(O)c2)cc1 | 4.86 nM | 4.67 nM | 4.38 nM | 3.94 nM | 4.36 nM | 86.8% | 83.1% | 76% | 6.29% | 0.38% | 0.5% | 83.1% | 85.3% | 72.1% | 6.64% | 0.44% | 0.17% | 75.1% | 76.9% | 67.8% | viability, T/C [16]: 4.77%; viability, T/C [17]: 0.26%; viability, T/C [18]: 0.21%; viability, T/C [19]: 73.1%; viability, T/C [20]: 72.1%; viability, T/C [21]: 61%; viability, T/C [22]: 3.44%; viability, T/C [23]: 3.87%; viability, T/C [24]: 0.21%; viability, T/C [25]: 66.1%; viability, T/C [26]: 67.6%; viability, T/C [27]: 70.9%; viability, T/C [28]: 3.06%; viability, T/C [29]: 0.15%; viability, T/C [30]: 0.18%

Source: PubChem BioAssay AID1918941 (Molecular Pharmacology Branch, DTP, NCI, 2023)
